Experimental findings from US20090186874A1, “Carboxamide derivative and use thereof” (priority 2004, published 2009) are described below.

The IC50 is the concentration that inhibits the measured activity by half. The low end stands for greater potency, the high end for weaker potency.

Counter-ions that a name gives are not always drawn.

T1 sequence (P25103 whole entry): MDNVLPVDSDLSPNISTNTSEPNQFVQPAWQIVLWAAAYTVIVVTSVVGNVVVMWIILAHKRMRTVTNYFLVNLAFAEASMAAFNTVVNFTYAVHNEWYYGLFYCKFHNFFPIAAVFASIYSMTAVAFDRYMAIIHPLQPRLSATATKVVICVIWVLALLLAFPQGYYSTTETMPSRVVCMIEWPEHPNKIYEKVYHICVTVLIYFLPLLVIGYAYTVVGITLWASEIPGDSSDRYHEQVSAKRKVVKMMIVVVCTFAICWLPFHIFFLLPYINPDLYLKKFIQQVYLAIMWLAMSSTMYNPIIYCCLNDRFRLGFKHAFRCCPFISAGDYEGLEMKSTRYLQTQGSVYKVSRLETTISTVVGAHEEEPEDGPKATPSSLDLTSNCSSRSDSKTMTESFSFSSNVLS

This assay addresses T1, substance P receptor (Homo sapiens, UniProt P25103).
T1 construct: The receptor was prepared from human lymphoblast cells (IM-9); endogenous in cells; host or cells: IM-9 human lymphoblast cells (membrane preparation)
The assay can be described thus: Radioligand receptor binding inhibitory activity (125I-BHSP binding to receptor from IM-9 cells). The settings on record: receptor from human lymphoblast cells (IM-9); radioligand 125I-BHSP; 25° C., 30 minutes. Here is the method:
Radioligand receptor binding inhibitory activity (Binding inhibitory activity using receptor from human lymphoblast cells (IM-9))
The residue was washed twice with 30 mL of the above-mentioned buffer, which was then preserved frozen (−80° C.) as a specimen of the receptor.
The specimen was suspended in a reaction buffer (50 mM Tri-HCl buffer (pH 7.4), 0.02% bovine serum albumin, 1 mM phenylmethylsulfonyl fluoride, 2 μg/mL chymostatin, 40 μg/mL bacitracin and 3 mM manganese chloride) to have protein in the concentration of 0.5 mg/mL of protein and 100 μl portion of the suspension was used in the reaction. […] The amount of nonspecific binding was determined by adding substance P at a final concentration of 2×10^−6 M.
After the reaction, using a cell harvester (290 PHD, Cambridge Technology, Inc, U.S.A.), filtration was carried out through a glass filter (GF/B, Whatman, U.S.A.), which was immersed in 0.1% polyethyleneimine for 24 hours and dried. After washing three times with 250 μL of 50 mM Tris-HCl buffer (pH 7.4) containing 0.02% bovine serum albumin, the radioactivity remaining on the filter was determined with a gamma counter.
As for `Cc1cc(F)ccc1[C@@H]1CNCC[C@H]1C(=O)N(C)Cc1cc(C(F)(F)F)cc(C(F)(F)F)c1` (relative stereo) [Example 12, (3R*,4R*)-N-[3,5-bis(trifluoromethyl)benzyl]-3-(4-fluoro-2-methylphenyl)-N-methylpiperidine-4-carboxamide hydrochloride], the IC50 worked out at 0.051 nM.

As for `CC(=O)N1CCC(C(=O)N2CC[C@H](C(=O)N(C)Cc3cc(C(F)(F)F)cc(C(F)(F)F)c3)[C@H](c3ccccc3)C2)CC1` (relative stereo) [Example 30, (3R*,4S*)-1-[(1-acetylpiperidin-4-yl)carbonyl]-N-[3,5-bis(trifluoromethyl)benzyl]-N-methyl-3-phenylpiperidine-4-carboxamide], the IC50 is 0.049 nM.

As for `CC(=O)N1CCC(C(=O)N2CC[C@@H](C(=O)N(C)Cc3cc(C(F)(F)F)cc(C(F)(F)F)c3)[C@H](c3ccccc3)C2)CC1` (relative stereo) [Example 35, (3R*,4R*)-1-[(1-acetylpiperidin-4-yl)carbonyl]-N-[3,5-bis(trifluoromethyl)benzyl]-N-methyl-3-phenylpiperidine-4-carboxamide], the IC50 is 0.098 nM.

The compound `COCC(=O)N1CC[C@@H](C(=O)N(C)Cc2cc(C(F)(F)F)cc(C(F)(F)F)c2)[C@H](c2ccc(F)cc2C)C1` (relative stereo) [Example 40, (3R*,4R*)-N-[3,5-bis(trifluoromethyl)benzyl]-3-(4-fluoro-2-methylphenyl)-1-(methoxyacetyl)-N-methylpiperidine-4-carboxamide] came in with a concentration for half-maximal inhibition (IC50) of 0.058 nM.

`CCN(CC)CCC(=O)N1CC[C@@H](C(=O)N(C)Cc2cc(C(F)(F)F)cc(C(F)(F)F)c2)[C@H](c2ccc(F)cc2C)C1` (relative stereo) [Example 41, (3R*,4R*)-N-[3,5-bis(trifluoromethyl)benzyl]-1-(N,N-diethyl-β-alanyl)-3-(4-fluoro-2-methylphenyl)-N-methylpiperidine-4-carboxamide Hydrochloride] displayed an IC50 of 0.025 nM.

Compound `Cc1cc(F)ccc1[C@@H]1CN(C(=O)Cn2cnnn2)CC[C@H]1C(=O)N(C)Cc1cc(C(F)(F)F)cc(C(F)(F)F)c1` (relative stereo) [Example 42, (3R*,4R*)-N-[3,5-bis(trifluoromethyl)benzyl]-3-(4-fluoro-2-methylphenyl)-N-methyl-1-(1H-tetrazol-1-ylacetyl)piperidine-4-carboxamide] displayed an IC50 of 0.022 nM.

`Cc1cc(F)ccc1[C@@H]1CN(C(=O)CC2NC(=O)NC2=O)CC[C@H]1C(=O)N(C)Cc1cc(C(F)(F)F)cc(C(F)(F)F)c1` (relative stereo) [Example 43, (3R*,4R*)-N-[3,5-bis(trifluoromethyl)benzyl]-1-[(2,5-dioxoimidazolidin-4-yl)acetyl]-3-(4-fluoro-2-methylphenyl)-N-methylpiperidine-4-carboxamide]: the IC50 was found to be 0.064 nM.

Consider `CC(=O)N1CCC(C(=O)N2CC[C@H](C(=O)N(C)Cc3cc(C(F)(F)F)cc(C(F)(F)F)c3)[C@H](c3ccc(F)cc3)C2)CC1` (relative stereo) [Example 44, (3R*,4S*)-1-[(1-acetylpiperidin-4-yl)carbonyl]-N-[3,5-bis(trifluoromethyl)benzyl]-3-(4-fluorophenyl)-N-methylpiperidine-4-carboxamide], for which the IC50 came to 0.019 nM.

As for `CC(=O)N1CCC(C(=O)N2CC[C@@H](C(=O)N(C)Cc3cc(C(F)(F)F)cc(C(F)(F)F)c3)[C@H](c3ccc(F)cc3)C2)CC1` (relative stereo) [Example 45, (3R*,4R*)-1-[(1-acetylpiperidin-4-yl)carbonyl]-N-[3,5-bis(trifluoromethyl)benzyl]-3-(4-fluorophenyl)-N-methylpiperidine-4-carboxamide], the half-maximal inhibitory concentration (IC50) was determined as 0.052 nM.

On to `CC(=O)N1CCC(C(=O)N2CC[C@@H](C(=O)N(C)Cc3cc(C(F)(F)F)cc(C(F)(F)F)c3)[C@H](c3ccc(F)cc3C)C2)CC1` (relative stereo) [Example 46, (3R*,4R*)-1-[(1-acetylpiperidin-4-yl)carbonyl]-N-[3,5-bis(trifluoromethyl)benzyl]-3-(4-fluoro-2-methylphenyl)-N-methylpiperidine-4-carboxamide], for which the IC50 turned out to be 0.047 nM.

As to `Cc1cc(F)ccc1[C@@H]1CN(Cc2n[nH]c(=O)[nH]2)CC[C@H]1C(=O)N(C)Cc1cc(C(F)(F)F)cc(C(F)(F)F)c1` (relative stereo) [Example 54, (3R*,4R*)-N-[3,5-bis(trifluoromethyl)benzyl]-3-(4-fluoro-2-methylphenyl)-N-methyl-1-[(5-oxo-4,5-dihydro-1H-1,2,4-triazol-3-yl)methyl]piperidine-4-carboxamide], the concentration for half-maximal inhibition (IC50) was found to be 0.036 nM.

`Cc1cc(F)ccc1[C@@H]1CN(C(=O)C(N)=O)CC[C@H]1C(=O)N(C)Cc1cc(C(F)(F)F)cc(C(F)(F)F)c1` (relative stereo) [Example 73, (3R*,4R*)-1-[amino(oxo)acetyl]-N-[3,5-bis(trifluoromethyl)benzyl]-3-(4-fluoro-2-methylphenyl)-N-methylpiperidine-4-carboxamide] yielded a concentration for half-maximal inhibition (IC50) of 0.052 nM.

As for `Cc1cc(F)ccc1[C@@H]1CN(C(N)=O)CC[C@H]1C(=O)N(C)Cc1cc(C(F)(F)F)cc(C(F)(F)F)c1` (relative stereo) [Example 75, (3R*,4R*)-N^4-[3,5-bis(trifluoromethyl)benzyl]-3-(4-fluoro-2-methylphenyl)-N^4-methylpiperidine-1,4-dicarboxamide], the IC50 was 0.035 nM.

`CC(=O)NCC(=O)N1CC[C@@H](C(=O)N(C)Cc2cc(C(F)(F)F)cc(C(F)(F)F)c2)[C@H](c2ccc(F)cc2C)C1` (relative stereo) [Example 77, (3R*,4R*)-1-(N-acetylglycyl)-N-[3,5-bis(trifluoromethyl)benzyl]-3-(4-fluoro-2-methylphenyl)-N-methylpiperidine-4-carboxamide] registered a concentration for half-maximal inhibition (IC50) of 0.043 nM.
